For 18 compounds, IC50 results are on record in patent publication US10000516B2 (priority 2015, dated 2018).

As a reminder, the IC50 is the concentration needed to halve the response being measured.

T1 sequence (P00746 26-253): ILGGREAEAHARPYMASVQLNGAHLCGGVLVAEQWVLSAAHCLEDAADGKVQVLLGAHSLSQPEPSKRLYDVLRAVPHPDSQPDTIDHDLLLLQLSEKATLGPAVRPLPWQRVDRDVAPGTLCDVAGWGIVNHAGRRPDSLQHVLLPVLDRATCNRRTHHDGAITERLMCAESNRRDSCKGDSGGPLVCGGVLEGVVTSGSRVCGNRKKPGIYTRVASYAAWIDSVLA

One assay addresses T1, Human Factor D (Homo sapiens, UniProt P00746).
T1 construct: purified from human serum; purchased Complement Technology, Inc; host or cells: human serum (natural protein, not recombinant)
The assay can be described thus: Human Factor D assay (Z-L-Lys-SBzl/DTNB, absorbance at 405 nm).
Details: not given
It counts as biochemical. As for the experimental part: Example 44. Human Factor D Assay
Human Factor D (purified from human serum, Complement Technology, Inc.) at 80 nM final concentration was incubated with test compound at various concentrations for 5 minutes at room temperature in 50 mM Tris, 1M NaCl, pH 7.5. A synthetic substrate Z-L-Lys-SBzl and DTNB (Ellman's reagent) are added to final concentrations of 100 µM each. Absorbance at 405 nm (A405) was recorded at 30 second intervals for 30 minutes using a microplate spectrophotometer. IC50 values are calculated by nonlinear regression of complement Factor D reaction rates as a function of test compound concentration.
`O=C(NCc1cccc(Cl)c1F)[C@@H]1C[C@@H](F)CN1C(=O)Cn1cc(C(=O)C(F)(F)F)c2ccc(P(=O)(O)O)cc21` [Compound 32, 1-(2-((2S,4R)-2-(3-chloro-2-fluorobenzylcarbamoyl)-4-fluoropyrrolidin-1-yl)-2-oxoethyl)-3-(2,2,2-trifluoroacetyl)-1H-indol-6-ylphosphonic acid] registered an IC50 of less than 1 µM.
The same measure, in the same setting: next, `CC(=O)c1cn(CC(=O)N2[C@@H]3CCC[C@@H]3C[C@H]2C(=O)NCc2cccc(Cl)c2F)c2cc(P(=O)(O)O)ccc12` [Compound 7, 3-acetyl-1-(2-((2S,3aR,6aR)-2-(3-chloro-2-fluorobenzylcarbamoyl)hexahydrocyclopenta [b]pyrrol-1(2H)-yl)-2-oxoethyl)-1H-indol-6-ylphosphonic acid]: less than 1 µM.

Still in this assay, the particulars now being: Table 1; Human Factor D 80 nM, purified from human serum; substrate Z-L-Lys-SBzl; read-out: IC50.
`CCOP(=O)(O)c1ccc2c(C(C)=O)cn(CC(=O)N3C[C@H](F)C[C@H]3C(=O)NCc3cccc(Cl)c3F)c2c1` [Compound 2, ethyl hydrogen 3-acetyl-1-(2-((2S,4R)-2-(3-chloro-2-fluorobenzylcarbamoyl)-4-fluoropyrrolidin-1-yl)-2-oxoethyl)-1H-indol-6-ylphosphonate]: the half-maximal inhibitory concentration (IC50) is less than 1 µM.
As to `CCOP(=O)(O)c1ccc2c(c1)c(C(C)=O)cn2CC(=O)N1C[C@H](F)C[C@H]1C(=O)NCc1cccc(Cl)c1F` [Compound 9, ethyl hydrogen 3-acetyl-1-(2-((2S,4R)-2-(3-chloro-2-fluorobenzylcarbamoyl)-4-fluoropyrrolidin-1-yl)-2-oxoethyl)-1H-indol-5-ylphosphonate], the half-inhibitory concentration (IC50) is greater than 10 µM.
In the case of `CC(=O)c1cn(CC(=O)N2C[C@H](F)C[C@H]2C(=O)NCc2cccc(Cl)c2F)c2cc(P(=O)(O)OCOC(=O)C(C)(C)C)ccc12` [Compound 28, ((3-acetyl-1-(2-((2S,4R)-2-(3-chloro-2-fluorobenzylcarbamoyl)-4-fluoropyrrolidin-1-yl)-2-oxoethyl)-1H-indol-6-yl)(hydroxy)phosphoryloxy) methyl pivalate], the IC50 was less than 1 µM.
For the compound `CC(=O)c1cn(CC(=O)N2C[C@H](F)C[C@H]2C(=O)NCc2cccc(Cl)c2F)c2cc(P(=O)(O)OCC(F)(F)F)ccc12` [Compound 29, 2,2,2-trifluoroethyl hydrogen 3-acetyl-1-(2-((2S,4R)-2-(3-chloro-2-fluorobenzylcarbamoyl)-4-fluoropyrrolidin-1-yl)-2-oxoethyl)-1H-indol-6-ylphosphonate], the IC50 is less than 1 µM.
On to `CC(=O)c1cn(CC(=O)N2C[C@H](F)C[C@H]2C(=O)NCc2cccc(Cl)c2F)c2cc(P(=O)(OCOC(=O)C(C)(C)C)OCOC(=O)C(C)(C)C)ccc12` [Compound 26, ((3-acetyl-1-(2-((2S,4R)-2-(3-chloro-2-fluorobenzylcarbamoyl)-4-fluoropyrrolidin-1-yl)-2-oxoethyl)-1H-indol-6-yl)phosphoryl)bis(oxy)bis (methylene) bis(2,2-dimethylpropanoate)], for which the IC50 was less than 1 µM.
`CC(=O)c1cn(CC(=O)N2C[C@H](F)C[C@H]2C(=O)NCc2cccc(Cl)c2F)c2cc(P(=O)(O)c3ccccc3)ccc12` [Compound 25, 3-acetyl-1-(2-((2S,4R)-2-(3-chloro-2-fluorobenzylcarbamoyl)-4-fluoropyrrolidin-1-yl)-2-oxoethyl)-1H-indol-6-yl(phenyl)phosphinic acid]: the half-maximal inhibitory concentration (IC50) was less than 1 µM.
With `CCOP(=O)(OCC)c1ccc2c(C(=O)OC)cn(CC(=O)N3C[C@H](F)C[C@H]3C(=O)NCc3cccc(Cl)c3F)c2c1` [Compound 13, methyl 1-(2-((2S,4R)-2-(3-chloro-2-fluorobenzylcarbamoyl)-4-fluoropyrrolidin-1-yl)-2-oxoethyl)-6-(diethoxyphosphoryl)-1H-indole-3-carboxylate], the IC50 is less than 1 µM.
Consider `COC(=O)c1cn(CC(=O)N2C[C@H](F)C[C@H]2C(=O)NCc2cccc(Cl)c2F)c2cc(P(=O)(O)O)ccc12` [Compound 14, 1-(2-((2S,4R)-2-(3-chloro-2-fluorobenzylcarbamoyl)-4-fluoropyrrolidin-1-yl)-2-oxoethyl)-3-(methoxycarbonyl)-1H-indol-6-ylphosphonic acid], for which the IC50 was less than 1 µM.
Take `CC(=O)c1cn(CC(=O)N2C[C@H](F)C[C@H]2C(=O)NCc2cccc(Cl)c2F)c2cc(P(=O)(O)O)c(F)cc12` [Compound 31, 3-acetyl-1-(2-((2S,4R)-2-(3-chloro-2-fluorobenzylcarbamoyl)-4-fluoropyrrolidin-1-yl)-2-oxoethyl)-5-fluoro-1H-indol-6-ylphosphonic acid]: the concentration for half-maximal inhibition (IC50) is less than 1 µM.
As for `CC(=O)c1cn(CC(=O)N2C[C@H](F)C[C@H]2C(=O)NCc2cccc(Cl)c2F)c2cc(P(=O)(O)OCOC(=O)OC(C)C)ccc12` [Compound 22, ((3-acetyl-1-(2-((2S,4R)-2-(3-chloro-2-fluorobenzylcarbamoyl)-4-fluoropyrrolidin-1-yl)-2-oxoethyl)-1H-indol-6-yl)(hydroxy)phosphoryloxy) methyl isopropyl carbonate], the IC50 is less than 1 µM.
The same measure, in the same setting: next, `CC(=O)c1cn(CC(=O)N2C[C@H](F)C[C@H]2C(=O)NCc2cccc(Cl)c2F)c2cc(P(=O)(OCC(F)(F)F)OCC(F)(F)F)ccc12` [Compound 19, bis(2,2,2-trifluoroethyl) 3-acetyl-1-(2-((2S,4R)-2-(3-chloro-2-fluorobenzylcarbamoyl)-4-fluoropyrrolidin-1-yl)-2-oxoethyl)-1H-indol-6-ylphosphonate]: less than 1 µM.

Still in this assay, the particulars now being: Table 3; Human Factor D 80 nM, purified from human serum; substrate Z-L-Lys-SBzl; read-out: IC50 (Stars).
`CC(=O)c1nn(CC(=O)N2[C@H](C(=O)Nc3cccc(Br)n3)C[C@@]3(C)C[C@@H]23)c2cc(P(=O)(O)O)ccc12` [Compound 106, (3-acetyl-1-(2-((1R,3S,5R)-3-((6-bromopyridin-2-yl)carbamoyl)-5-methyl-2-azabicyclo[3.1.0]hexan-2-yl)-2-oxoethyl)-1H-indazol-6-yl) phosphonic acid]: the 50% inhibitory concentration (IC50) is less than 1 µM.
As for `CC(=O)c1nn(CC(=O)N2C[C@H](F)C[C@H]2C(=O)Nc2cccc(Br)n2)c2cc(P(=O)(O)O)ccc12` [Compound 105, (3-acetyl-1-(2-((2S,4R)-2-((6-bromopyridin-2-yl)carbamoyl)-4-fluoropyrrolidin-1-yl)-2-oxoethyl)-1H-indazol-6-yl)phosphonic acid], the IC50 was less than 1 µM.
On to `CCOP(=O)(OCC)c1ccc2c(c1)c(C(C)=O)cn2CC(=O)N1C[C@H](F)C[C@H]1C(=O)NCCc1ccccc1` [Compound 78, diethyl (3-acetyl-1-(2-((2S,4R)-4-fluoro-2-(phenethylcarbamoyl)pyrrolidin-1-yl)-2-oxoethyl)-1H-indol-5-yl)phosphonate], for which the IC50 was greater than 10 µM.
With `Cc1cccc(NC(=O)[C@@H]2[C@H]3CC[C@H](C3)N2C(=O)Cn2cc(C(N)=O)c3cc(P(=O)(O)O)ccc32)n1` [Compound 103, (3-carbamoyl-1-(2-((1R,3S,4S)-3-((6-methylpyridin-2-yl)carbamoyl)-2-azabicyclo[2.2.1]heptan-2-yl)-2-oxoethyl)-1H-indol-5-yl)phosphonic acid], the IC50 was greater than 10 µM.
As to `CCOP(=O)(OCC)c1ccc2c(c1)c(C(C)=O)cn2CC(=O)N1C[C@H](F)C[C@H]1C(=O)NCCCc1ccccc1` [Compound 82, diethyl (3-acetyl-1-(2-((2S,4R)-4-fluoro-2-((3-phenylpropyl)carbamoyl)pyrrolidin-1-yl)-2-oxoethyl)-1H-indol-5-yl)phosphonate], the IC50 was greater than 10 µM.
